# Measurements as given in patent US20060287316A1, “METHOD FOR IMPROVING PHARMACOKINETICS OF PROTEASE INHIBITORS AND PROTEASE INHIBITOR PRECURSORS” (priority 2005, published 2006).
# Tests used:
# [1] = Effect of CYP450 inhibitors on metabolism of HIV-1 protease inhibitors in human liver microsomes; assay type: in vitro ADME
# Method: The effect of CYP450 inhibitors on the metabolism of HIV-1 anti-protease was tested in human liver microsomes.
# [2] = Pharmacokinetics of PL-100 and PL-461 in rats; assay type: in vivo, Sprague Dawley rats (Rattus norvegicus); settings: 5 mg/kg i.v., female rats
# Method: Animal tested are Sprague Dawley rats (species Rattus norvegicus) of 6-7 weeks old at the start of dosing and were obtained from Charles River (Montreal, Canada). The study usually comprises about 6 animals per groups. […] The rats were fasted 3 h. before dosing and 3 h. after dosing. The formulations are prepared as indicated below. The solutions are stable at room temperature over a week and are covered with aluminum foil to avoid lights. […] The dosing volume for all formulations is 2 mL per kg body weight. Blood sample was collected at 15 min, 30 min, 45 min, 1 […] after the dosing. Blood samples were centrifuged to separate the plasma and separated plasma samples were placed into cryovials and frozen at -80° C. for further analysis. Plasma samples together with standards and quality control samples were treated by protein precipitation and then analyzed by HPLC-MS. […] The PK profile was obtained by administration of the test drugs; PL-100 and PL-461 in rats. […] The pharmacokinetic parameters of PL-100 and PL-461 in rats** was compared.
# [3] = Sprague Dawley, rat, plasma, iv
smiles,measurement,setting,value
"COC(=O)N[C@H](C(=O)NCCCC[C@@H](CO)N(CC(C)C)S(=O)(=O)c1ccc(N)cc1)C(c1ccccc1)c1ccccc1 [PL-100, (1S,5S)-(1-{5-[(4-amino-benzenesulfonyl)-isobutyl-amino]-6-hydroxy-hexylcarbamoyl}-2,2-diphenyl-ethyl)-carbamic acid methyl ester]",Effect of CYP450 inhibitor on metabolism,[1]; with ketoconazole and sulfaphenazole (FIG. 6),able to increase the PK of PL-100
same,Effect of CYP450 inhibitor on metabolism,[1]; with ritonavir (FIG. 6),most effective combination
same,Cl_F,[2],58.3 mL/min/kg
same,Tlast,[2],6 h
same,Vz_F,[2],6.1 L/kg
same,λz,[2],0.52 h⁻¹
same,concentration at 6 hr,"[2]; Sprague Dawley, rat, plasma, intravenous, read-out: Clast",44 ng/mL
same,AUC(0-inf),[2]; [3],1430 ng·h/mL
same,AUC(0-t),[2]; [3],1370 ng·h/mL
same,Cmax,[2]; [3],1800 ng/mL
same,Tmax,[2]; [3],6 min
same,half-life,"[2]; Sprague Dawley, rat, plasma, iv, read-out: T½ (converted)",72 min
